Laboratory results from US11890316B2, “Oral octreotide therapy and contraceptive methods” (Amryt Endo, Inc., priority 2020, dated 2024).

How the values were obtained:
clinical [1] = settings: for Cmax, least squares geometric mean, Test / Cmax, least squares geometric mean, Reference: co-administered with HCTZ and metformin, in ng/mL; for effect of oral octreotide on the exposure to the probe drug (Cmax and AUC0-5): single 40 mg oral octreotide acetate vs placebo, first 5 h after dosing
From the text: This was a single-center, randomized, single-blind, placebo-controlled, crossover design study in healthy male and female subjects.
Eligible subjects were randomized in a 1:1 ratio to one of two treatment sequences of test conditions (i.e., Group 1 or Group 2); females were studied under 4 test conditions (A to D), whereas males were studied under 2 test conditions only (A and B), as shown in Table 1.
The study comprised a screening period, 4 treatment (dosing) periods for females and 2 treatment periods for males, and a follow-up period (approximately 7-10 days following the last dosing). There was a washout period of at least 14 days between dosing events.
The effect of […] on the absorption of estradiol was assessed by comparing Test Conditions C and D in up to 14 females. Blood sampling was conducted over the first 5 hours after administration.
Confidence intervals (Cis) (90%) were constructed for the geometric mean rations (GMRs) (probe drug+oral octreotide to probe drug alone) of the 2 parameters using the natural log-transformed data and the 2 one-sided t-tests procedure. The GMRs and CIs were exponentiated back to the original scale. The effect of concurrent administration of oral octreotide was assessed from the GMRs and 90% Cis. The discrete parameter Tmax was compared among treatments using non-parametric analyses.

clinical [2] = settings: female, human, in vivo, po
[3] = both, human, in vivo, po, 100 mg
[4] = both, human, in vivo, po, 850 mg
[5] = S-warfarin with oral octreotide vs S-warfarin with placebo
[6] = R-warfarin with oral octreotide vs R-warfarin with placebo

In the case of `NS(=O)(=O)c1cc2c(cc1Cl)NCNS2(=O)=O` [Hydrochlorothiazide, hydrochlorothiazide], the “AUC(0-5) Geometric Mean Ratio, Estimate” value (clinical [1]; both, human, in vivo, po) is reported as 81.82%, the “Cmax Geometric Mean Ratio, Estimate” value (clinical [1]; both, human, in vivo, po) is reported as 91.21% and the Tmax (clinical [1]; both, human, in vivo, po) is reported as 4 h. The AUC(0-t) (clinical [1]; [3]) was 2030 ± 392 ng·h/mL, the Tmax (clinical [1]; [3]) was 2.75 h and the Cmax (clinical [1]; both, human, in vivo, po, 100 mg, Cmax) was 655 ± 128 ng/mL.
`CN(C)C(=N)N=C(N)N` [Metformin, metformin] showed an AUC(0-t) (clinical [1]; [4]) of 5500 ± 1280 ng·h/mL and a Cmax (clinical [1]; [4]) of 1450 ± 398 ng/mL.
For `CC(=O)C[C@@H](c1ccccc1)c1c(O)c2ccccc2oc1=O` [S-Warfarin, S-warfarin], the Cmax (clinical [1]; S-warfarin in plasma, single 7.5 mg oral racemic warfarin, with single 40 mg (2x20 mg) oral octreotide acetate, healthy volunteers, mean ± SD) was 492 ± 114.2 ng/mL, the Cmax (clinical [1]; S-warfarin in plasma, single 7.5 mg oral racemic warfarin, without oral octreotide (placebo), mean ± SD) was 503 ± 91.2 ng/mL and the “Cmax, least squares geometric mean, Test” value (clinical [1]; S-warfarin with oral octreotide 40 mg, 7.5 mg racemic warfarin) was 480.09. The “AUC(0-5) Geometric Mean Ratio, Estimate” value (clinical [1]; [5]) was 102.38%, the “Cmax Geometric Mean Ratio, Estimate” value (clinical [1]; [5]) was 97.06% and the “Cmax, least squares geometric mean, Reference” value (clinical [1]; S-warfarin with placebo, 7.5 mg racemic warfarin) was 494.64. For the same compound, the “AUC(0-5)” value (clinical [1]; S-warfarin, 7.5 mg racemic warfarin, with 40 mg oral octreotide acetate, mean ± SD) was 1894 ± 330 ng·h/mL, the Tmax (clinical [1]; S-warfarin, 7.5 mg racemic warfarin, with 40 mg oral octreotide acetate, median) was 1.50 (18) h and the “AUC(0-5)” value (clinical [1]; S-warfarin, 7.5 mg racemic warfarin, without oral octreotide (placebo), mean ± SD) was 1846 ± 286 ng·h/mL. For the same compound, the Tmax (clinical [1]; S-warfarin, 7.5 mg racemic warfarin, without oral octreotide (placebo), median) was 1.00 (18) h and the “effect of oral octreotide on the exposure to the probe drug (Cmax and AUC0-5)” value (clinical [1]; healthy volunteers) was “no significant effect”.
For `C#C[C@]1(O)CC[C@H]2[C@@H]3CCc4cc(O)ccc4[C@H]3CC[C@@]21C` [Ethinyl Estradiol, ethinyl estradiol], the “Cmax Geometric Mean Ratio, Estimate” value (clinical [2]) was 92.05%, the Tmax (clinical [2]) was 2.75 h and the AUC(0-t) (clinical [2]; 0.06 mg) was 0.37 ± 0.0802 ng·h/mL. It also gave a Tmax (clinical [2]; 0.06 mg) of 1.79 h and a Cmax (clinical [2]; 0.06 mg, Cmax) of 0.113 ± 0.0287 ng/mL.
In the case of `CC(=O)C[C@H](c1ccccc1)c1c(O)c2ccccc2oc1=O` [R-Warfarin, R-warfarin], the Cmax (clinical [1]; R-warfarin in plasma, single 7.5 mg oral racemic warfarin, with single 40 mg (2x20 mg) oral octreotide acetate, healthy volunteers, mean ± SD) is reported as 508 ± 97.0 ng/mL, the Cmax (clinical [1]; R-warfarin in plasma, single 7.5 mg oral racemic warfarin, without oral octreotide (placebo), healthy volunteers, mean ± SD) is reported as 498 ± 82.0 ng/mL and the “Cmax, least squares geometric mean, Test” value (clinical [1]; R-warfarin with oral octreotide 40 mg, 7.5 mg racemic warfarin) is reported as 500.10. For the same compound, the “AUC(0-5) Geometric Mean Ratio, Estimate” value (clinical [1]; [6]) was 105.17%, the “Cmax Geometric Mean Ratio, Estimate” value (clinical [1]; [6]) was 101.84% and the “Cmax, least squares geometric mean, Reference” value (clinical [1]; R-warfarin with placebo, 7.5 mg racemic warfarin) was 491.04. For the same compound, the “AUC(0-5)” value (clinical [1]; R-warfarin, 7.5 mg racemic warfarin, with 40 mg oral octreotide acetate, mean ± SD) was 2012 ± 348 ng·h/mL, the Tmax (clinical [1]; R-warfarin, 7.5 mg racemic warfarin, with 40 mg oral octreotide acetate, median) was 2.00 (18) h and the “AUC(0-5)” value (clinical [1]; R-warfarin, 7.5 mg racemic warfarin, without oral octreotide (placebo), mean ± SD) was 1907 ± 280 ng·h/mL. The Tmax (clinical [1]; R-warfarin, 7.5 mg racemic warfarin, without oral octreotide (placebo), median) was 1.00 (18) h and the “effect of oral octreotide on the exposure to the probe drug (Cmax and AUC0-5)” value (clinical [1]; healthy volunteers) was “no significant effect”.
